We go through 14 compounds from patent US20260200892A1, “CANNABINOID RECEPTOR 2 MODULATORS” (Hoffmann-La Roche Inc., priority 2023, published 2026).

Where two headings read alike, the source gives them in different places.

Assay [1] addresses T1, human CB2 receptor (hCB2R) (Homo sapiens, UniProt P34972).
T1 construct: expressed in transfected cells; membranes
The assay can be described thus: TR-FRET hCB2R binding assay. A general note: In TR-FRET formats the signal depends on donor and acceptor labels being close together.

A further assay deals with hCB1R (Homo sapiens, UniProt P21554). The assay can be described thus: hCB1R binding (Kd hCB1R, Table 1).
Assay [2] has as its target T2, CB2 receptor (hCB2R), CHO cell line stably overexpressing CB2 receptor (Homo sapiens, UniProt P34972).
T2 construct: expressed in transfected cells; host or cells: CHO cell line stably overexpressing CB2 receptor (G418 selection)
The assay can be described thus: cAMP hCB2R functional assay (HTRF). In kind it is cell-based. The following applies: CHO cells overexpressing CB2 receptor, forskolin; for Functionality: normalized to Emax of CP55940 (100%); for EC50: means ± SEM of 2-3 independent experiments. As for the experimental part:
cAMP hCB2R Functional Assay
The Homogeneous Time Resolved Fluorescence (HTRF) Assays
The homogeneous time-resolved fluorescence (HTRF) cAMP assay was conducted according to the manufacturer's protocol for the cAMP-Gs Dynamic kit (Cisbio). Briefly, the CHO cell line stably overexpressing CB2 receptor were maintained in Ham's F12 supplemented with 10% FBS, 100 U/ml penicillin and 100 μg/ml streptomycin (Gibco-ThermoFisher) and 400 μg/ml G418 (ThermoFisher). For CB2 compounds test, harvest the cells with Cell Dissociation Buffer and re-suspend the cells in F-12 K at 0.4*10^6 cells/mL, and dispense cells into 384-well low volume plates at 2000 cells/5 μL per well. The cells were stimulated with compounds diluted in Stimulation Buffer (2.5 μL/well) for 15 min at room temperature. And then followed by the addition of 2.5 μL 25 μM forsklin. After 15 mins incubation, reactions were stopped by 5 μL/well cAMP-d2 conjugate working solution followed by 5 μL/well of anti-cAMP cryptate working solution. After incubation for 1 h at room temperature, the plates were read in a PerkinElmer Envision reader for time-resolved fluorescence resonance energy transfer detection at 620 nm and 665 nm.
Quantification and Statistical Analysis
All HTRF ratio data sets of test compounds were normalized to the Emax of CP55940 (100%) and obtained the means±standard error of the mean (SEM) of 2-3 independent experiments performed in technical replicates.

Setting [3] is: TR-FRET, membranes of SNAP-tagged human CB2R HEK293-TR cells, 100 μM GppNHp, nonspecific binding with SR144528, read-out: Kd hCB2R.

T1 sequence (P34972 whole entry): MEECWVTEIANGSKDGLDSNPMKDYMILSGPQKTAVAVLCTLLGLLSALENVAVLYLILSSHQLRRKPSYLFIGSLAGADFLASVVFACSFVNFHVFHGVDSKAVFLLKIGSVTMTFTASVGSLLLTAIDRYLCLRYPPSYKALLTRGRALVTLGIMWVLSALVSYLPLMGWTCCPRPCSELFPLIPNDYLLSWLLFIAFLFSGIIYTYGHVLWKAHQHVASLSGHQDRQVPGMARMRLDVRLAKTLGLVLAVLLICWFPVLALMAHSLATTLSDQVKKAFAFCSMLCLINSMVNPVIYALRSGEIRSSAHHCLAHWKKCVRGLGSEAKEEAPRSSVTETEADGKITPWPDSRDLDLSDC
T2 sequence (P34972 whole entry): as above
Chain of hCB1R (P21554 whole entry): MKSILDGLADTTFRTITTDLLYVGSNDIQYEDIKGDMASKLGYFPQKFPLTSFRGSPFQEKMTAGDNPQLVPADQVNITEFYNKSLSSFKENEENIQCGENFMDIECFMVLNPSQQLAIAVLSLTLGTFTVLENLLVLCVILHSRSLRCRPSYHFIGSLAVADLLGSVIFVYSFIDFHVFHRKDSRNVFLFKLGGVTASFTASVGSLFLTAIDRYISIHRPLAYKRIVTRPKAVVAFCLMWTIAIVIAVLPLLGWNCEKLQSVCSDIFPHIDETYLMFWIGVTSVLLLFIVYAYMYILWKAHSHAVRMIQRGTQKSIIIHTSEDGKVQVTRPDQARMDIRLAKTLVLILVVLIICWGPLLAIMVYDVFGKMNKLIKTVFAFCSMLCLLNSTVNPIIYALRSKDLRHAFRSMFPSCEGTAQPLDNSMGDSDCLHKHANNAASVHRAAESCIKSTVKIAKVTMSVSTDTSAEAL

For the compound `CCCCC[C@@H](CC)C(C)(C)c1cc(OC)c([C@H]2C=C(CO)[C@H]3C[C@@H]2C3(C)C)c(OC)c1` (single isomer, unassigned) [Example 4], the Kd in assay [1] (setting [3]) was found to be 0.00097 µM; at hCB1R it was 2.19 µM. Moreover, in assay [2], the Functionality result was “antagonist”.

As for `COc1cc(C(C)(C)[C@@H](CCCCCN=[N+]=[N-])c2ccccc2)cc(OC)c1[C@H]1C=C(CN)[C@H]2C[C@@H]1C2(C)C` [Example 14, ((1S,4S,5S)-4-(4-((S)-8-azido-2-methyl-3-phenyloctan-2-yl)-2,6-dimethoxyphenyl)-6,6-dimethylbicyclo[3.1.1]hept-2-en-2-yl)methanamine], in assay [1] (setting [3]), the Kd was found to be 0.476 µM. For the same compound, in assay [2], the EC50 was 2.69 µM and the Functionality result is given as “inverse agonist”.

On to `COc1cc(C(C)(C)[C@H](CCCCCN=[N+]=[N-])c2ccccc2)cc(OC)c1[C@H]1C=C(CN)[C@H]2C[C@@H]1C2(C)C` [Example 15, ((1S,4S,5S)-4-(4-((R)-8-azido-2-methyl-3-phenyloctan-2-yl)-2,6-dimethoxyphenyl)-6,6-dimethylbicyclo[3.1.1]hept-2-en-2-yl)methanamine], for which the Kd in assay [1] (setting [3]) turned out to be 0.0391 µM. Further, in assay [2], the EC50 is 0.112 µM and the Functionality entry was “inverse agonist”.

`CCCCCC(c1ccccc1)C(C)(C)c1cc(OC)c([C@H]2C=C(CNC(=O)CCCCC[n+]3cc(S(=O)(=O)[O-])ccc3/C=C/c3cc4ccc(N(CC)CC)cc4oc3=O)[C@H]3C[C@@H]2C3(C)C)c(OC)c1` (stereo partly drawn) [Example 16, 6-((E)-2-(7-(diethylamino)-2-oxo-2H-chromen-3-yl)vinyl)-1-(6-((((1S,4S,5S)-4-(2,6-dimethoxy-4-(2-methyl-3-phenyloctan-2-yl)phenyl)-6,6-dimethylbicyclo[3.1.1]hept-2-en-2-yl)methyl)amino)-6-oxohexyl)pyridin-1-ium-3-sulfonate]: in assay [1] (setting [3]), the Kd amounted to 0.214 µM.

On to `C#CCCC(=O)NCC1=C[C@H](c2c(OC)cc(C(C)(C)[C@@H](CCCCCN=[N+]=[N-])c3ccccc3)cc2OC)[C@@H]2C[C@H]1C2(C)C` [Example 18, N-(((1S,4S,5S)-4-(4-((S)-8-azido-2-methyl-3-phenyloctan-2-yl)-2,6-dimethoxyphenyl)-6,6-dimethylbicyclo[3.1.1]hept-2-en-2-yl)methyl)pent-4-ynamide], for which, in assay [1] (setting [3]), the Kd is 0.0021 µM. Further, in assay [2], it took 0.0407 µM to reach a half-maximal effect (EC50) and the Functionality result is given as “inverse agonist”.

With `C#CCCC(=O)NCC1=C[C@H](c2c(OC)cc(C(C)(C)[C@H](CCCCCN=[N+]=[N-])c3ccccc3)cc2OC)[C@@H]2C[C@H]1C2(C)C` [Example 19, N-(((1S,4S,5S)-4-(4-((R)-8-azido-2-methyl-3-phenyloctan-2-yl)-2,6-dimethoxyphenyl)-6,6-dimethylbicyclo[3.1.1]hept-2-en-2-yl)methyl)pent-4-ynamide], in assay [1] (setting [3]), the Kd is 0.00042 µM. In assay [2], the midpoint of the response, the EC50, lay at 0.0331 µM and the Functionality result is recorded as “inverse agonist”.

For `CCN(CC)c1ccc2cc(/C=C/c3ccc(S(=O)(=O)[O-])c[n+]3CCCCCC(=O)NCC3=C[C@H](c4c(OC)cc(C(C)(C)C(CCCCCN=[N+]=[N-])c5ccccc5)cc4OC)[C@@H]4C[C@H]3C4(C)C)c(=O)oc2c1` (stereo partly drawn) [Example 20, 1-(6-((((1S,4S,5S)-4-(4-(8-azido-2-methyl-3-phenyloctan-2-yl)-2,6-dimethoxyphenyl)-6,6-dimethylbicyclo[3.1.1]hept-2-en-2-yl)methyl)amino)-6-oxohexyl)-6-((E)-2-(7-(diethylamino)-2-oxo-2H-chromen-3-yl)vinyl)pyridin-1-ium-3-sulfonate], the equilibrium dissociation constant (Kd) in assay [1] (setting [3]) was found to be 0.0679 µM.

Turning to `CCN(CC)c1ccc2cc(/C=C/c3ccc(S(=O)(=O)[O-])c[n+]3CCCCCC(=O)NCC3=C[C@H](c4c(OC)cc(C(C)(C)[C@@H](CCCCCN=[N+]=[N-])c5ccccc5)cc4OC)[C@@H]4C[C@H]3C4(C)C)c(=O)oc2c1` [Example 21, 1-(6-((((1S,4S,5S)-4-(4-((S)-8-azido-2-methyl-3-phenyloctan-2-yl)-2,6-dimethoxyphenyl)-6,6-dimethylbicyclo[3.1.1]hept-2-en-2-yl)methyl)amino)-6-oxohexyl)-6-((E)-2-(7-(diethylamino)-2-oxo-2H-chromen-3-yl)vinyl)pyridin-1-ium-3-sulfonate], in assay [1] (setting [3]), the Kd came out at 0.162 µM. In assay [2], the EC50 was 0.339 µM and the Functionality result is recorded as “inverse agonist”.

On to `COc1cc(C(C)(C)[C@@H](CCCCCN=[N+]=[N-])c2ccccc2)cc(OC)c1[C@H]1C=C(CNC(=O)CCCCCCNc2ccc([N+](=O)[O-])c3nonc23)[C@H]2C[C@@H]1C2(C)C` [Example 23, N-(((1S,4S,5S)-4-(4-((S)-8-azido-2-methyl-3-phenyloctan-2-yl)-2,6-dimethoxyphenyl)-6,6-dimethylbicyclo[3.1.1]hept-2-en-2-yl)methyl)-7-((7-nitrobenzo [c][1,2,5]oxadiazol-4-yl)amino)heptanamide], for which, in assay [1] (setting [3]), the Kd turned out to be 0.158 µM. The Functionality result in assay [2] is given as “Antagonist”.

On to `COc1cc(C(C)(C)[C@H](CCCCCN=[N+]=[N-])c2ccccc2)cc(OC)c1[C@H]1C=C(CNC(=O)CCCCCNC(=O)c2ccc3c(c2)C(=O)OC32c3ccc(N(C)C)cc3Oc3cc(N(C)C)ccc32)[C@H]2C[C@@H]1C2(C)C` [Example 25, N-(6-((((1S,4S,5S)-4-(4-((R)-8-azido-2-methyl-3-phenyloctan-2-yl)-2,6-dimethoxyphenyl)-6,6-dimethylbicyclo[3.1.1]hept-2-en-2-yl)methyl)amino)-6-oxohexyl)-3′,6′-bis(dimethylamino)-3-oxo-3H-spiro[isobenzofuran-1,9′-xanthene]-5-carboxamide], for which the Kd in assay [1] (setting [3]) was found to be 0.00278 µM; at hCB1R, 0.396 µM.

For `COc1cc(C(C)(C)[C@H](CCCCCN=[N+]=[N-])c2ccccc2)cc(OC)c1[C@H]1C=C(CNC(=O)CCCCCNC(=O)c2ccc3c(c2)C2(OC3=O)c3ccc(O)cc3Oc3cc(O)ccc32)[C@H]2C[C@@H]1C2(C)C` [Example 26, N-(6-((((1S,4S,5S)-4-(4-((R)-8-azido-2-methyl-3-phenyloctan-2-yl)-2,6-dimethoxyphenyl)-6,6-dimethylbicyclo[3.1.1]hept-2-en-2-yl)methyl)amino)-6-oxohexyl)-3′,6′-dihydroxy-3-oxo-3H-spiro[isobenzofuran-1,9′-xanthene]-6-carboxamide], the Kd in assay [1] (setting [3]) was 0.0303 µM; at hCB1R, 1.28 µM.

`COc1cc(C(C)(C)[C@H](CCCCCN=[N+]=[N-])c2ccccc2)cc(OC)c1[C@H]1C=C(CNC(=O)CCCCCNC(=O)CCCCC[N+]2=C(/C=C/C=C/C=C3/N(CCCS(=O)(=O)O)c4ccc(S(=O)(=O)O)cc4C3(C)C)C(C)(CCCCS(=O)(=O)O)c3cc(S(=O)(=O)[O-])ccc32)[C@H]2C[C@@H]1C2(C)C` (stereo partly drawn) [Example 27, 1-(6-((6-((((1S,4S,5S)-4-(4-((R)-8-azido-2-methyl-3-phenyloctan-2-yl)-2,6-dimethoxyphenyl)-6,6-dimethylbicyclo[3.1.1]hept-2-en-2-yl)methyl)amino)-6-oxohexyl)amino)-6-oxohexyl)-2-((1E,3E)-5-((E)-3,3-dimethyl-5-sulfo-1-(3-sulfopropyl)indolin-2-ylidene)penta-1,3-dien-1-yl)-3-methyl-3-(4-sulfobutyl)-3H-indol-1-ium-5-sulfonate]: the values for the Kd (in assay [1] (setting [3]); on hCB1R) were 0.0259 µM and 7.05 µM, respectively.

Take `COc1cc(C(C)(C)[C@H](CCCCCN=[N+]=[N-])c2ccccc2)cc(OC)c1[C@H]1C=C(CNC(=O)CCCCCNC(=O)CCc2ccc3n2[B-](F)(F)[N+]2=C(c4ccc[nH]4)C=CC2=C3)[C@H]2C[C@@H]1C2(C)C` [Example 28, N-(((1S,4S,5S)-4-(4-((R)-8-azido-2-methyl-3-phenyloctan-2-yl)-2,6-dimethoxyphenyl)-6,6-dimethylbicyclo[3.1.1]hept-2-en-2-yl)methyl)-6-(3-(5,5-difluoro-7-(1H-pyrrol-2-yl)-5H-514,614-dipyrrolo[1,2-c:2′,1′-f][1,3,2]diazaborinin-3-yl)propanamido)hexanamide]: the Kd in assay [1] is 0.0447 µM.

For the compound `COc1cc(C(C)(C)[C@H](CCCCCN=[N+]=[N-])c2ccccc2)cc(OC)c1[C@H]1C=C(CNC(=O)CCCCCNC(=O)c2ccc3c(c2)C(=O)OC32c3ccc(N)c(S(=O)(=O)O)c3Oc3c2ccc(N)c3S(=O)(=O)O)[C@H]2C[C@@H]1C2(C)C` [Example 29, 3′,6′-diamino-5-((6-((((1S,4S,5S)-4-(4-((R)-8-azido-2-methyl-3-phenyloctan-2-yl)-2,6-dimethoxyphenyl)-6,6-dimethylbicyclo[3.1.1]hept-2-en-2-yl)methyl)amino)-6-oxohexyl)carbamoyl)-3-oxo-3H-spiro[isobenzofuran-1,9′-xanthene]-4′,5′-disulfonic acid], the Kd in assay [1] (setting [3]) worked out at 0.0249 µM; at hCB1R, 3.3 µM.

Broadly, the Kd is the free concentration of one partner at which half of the binding sites on the other are occupied at equilibrium, for simple one-to-one binding. One may read the EC50 as the concentration that produces a half-maximal response. A high value points to weaker potency.
